According to ChEMBL document CHEMBL5523702, “Synthesis and structure-activity optimization of azepane-containing derivatives as PTPN2/PTPN1 inhibitors” (Eur J Med Chem, 2024):
Values after ≈ are worked out from the molar mass of the structure shown.

Legend:
[1] = AUC (0 to t) in mouse at 10 mg/kg, po; type: ADME, organism-based; conditions: in vivo
[2] = Half life in mouse at 10 mg/kg, po; type: ADME, organism-based; conditions: in vivo
[3] = Cmax in mouse at 10 mg/kg, po; type: ADME, organism-based; conditions: in vivo
[4] = Inhibition of PTPN2 in IFN-gamma induced mouse B16-F10 cells; type: cell-based
[5] = molecular target: T1, Tyrosine-protein phosphatase non-receptor type 2 (Homo sapiens, UniProt P17706); assay: Inhibition of human PTPN2 using DiFMUP as substrate by fluorescence based phosphatase assay
T1 sequence (P17706 whole entry): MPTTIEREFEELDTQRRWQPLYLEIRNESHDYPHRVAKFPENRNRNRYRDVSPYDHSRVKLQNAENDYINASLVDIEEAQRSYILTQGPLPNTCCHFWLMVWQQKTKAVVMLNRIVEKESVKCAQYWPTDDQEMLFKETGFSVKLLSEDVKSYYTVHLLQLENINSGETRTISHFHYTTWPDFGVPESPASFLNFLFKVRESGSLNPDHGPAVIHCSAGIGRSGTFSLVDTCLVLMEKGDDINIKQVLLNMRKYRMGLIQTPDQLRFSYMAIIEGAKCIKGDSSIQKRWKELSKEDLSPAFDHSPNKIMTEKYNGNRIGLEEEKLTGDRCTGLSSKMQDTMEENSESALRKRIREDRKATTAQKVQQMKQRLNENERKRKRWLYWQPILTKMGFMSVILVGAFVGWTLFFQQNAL

[6] = AUC (0 to t) in rat at 10 mg/kg, po; type: ADME, organism-based; conditions: in vivo
[7] = Oral bioavailability in dog at 2 mg/kg; type: ADME, organism-based, Canis lupus familiaris; conditions: in vivo
[8] = molecular target: T1, Tyrosine-protein phosphatase non-receptor type 2; assay: Binding affinity to human PTPN2 assessed as dissociation constant measured upto 300 secs by SPR analysis
[9] = AUC (0 to t) in dog at 2 mg/kg, po; type: ADME, organism-based, Canis lupus familiaris; conditions: in vivo
[10] = Oral bioavailability in rat at 10 mg/kg; type: ADME, organism-based; conditions: in vivo
[11] = tested on: MC-38; assay: Antitumor activity in mouse MC38 cells xenografted in C57BL/6J mouse model assessed as tumor growth inhibition at 30 mg/kg, po BID administered for 19 days relative to control; type: functional; conditions: MC-38, 456 h, time 19 day, read-out: TGI
[12] = Volume of distribution at steady state in dog at 1 mg/kg, iv; type: ADME, organism-based, Canis lupus familiaris; conditions: in vivo, read-out: Vdss
[13] = Oral bioavailability in mouse at 10 mg/kg; type: ADME, organism-based; conditions: in vivo
[14] = AUC (0 to t) in mouse at 50 mg/kg, po; type: ADME, organism-based; conditions: in vivo
[15] = Volume of distribution at steady state in rat at 1 mg/kg, iv; type: ADME, organism-based; conditions: in vivo, read-out: Vdss
[16] = molecular target: T2, Tyrosine-protein phosphatase non-receptor type 1 (Homo sapiens, UniProt P18031); assay: Inhibition of human PTP1B
T2 sequence (P18031 whole entry): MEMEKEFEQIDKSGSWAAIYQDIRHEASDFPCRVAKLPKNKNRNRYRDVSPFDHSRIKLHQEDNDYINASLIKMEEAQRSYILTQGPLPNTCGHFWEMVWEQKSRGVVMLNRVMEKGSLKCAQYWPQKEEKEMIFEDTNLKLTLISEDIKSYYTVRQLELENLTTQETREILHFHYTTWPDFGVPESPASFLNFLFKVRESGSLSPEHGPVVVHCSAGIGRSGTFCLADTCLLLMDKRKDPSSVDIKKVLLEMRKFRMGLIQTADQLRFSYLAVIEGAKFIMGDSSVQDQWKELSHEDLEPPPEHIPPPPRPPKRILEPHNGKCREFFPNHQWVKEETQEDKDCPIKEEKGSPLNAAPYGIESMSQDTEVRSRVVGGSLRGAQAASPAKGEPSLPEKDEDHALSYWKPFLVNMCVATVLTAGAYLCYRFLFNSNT

[17] = Cmax in rat at 10 mg/kg, po; type: ADME, organism-based; conditions: in vivo
[18] = Half life in dog at 2 mg/kg, po; type: ADME, organism-based, Canis lupus familiaris; conditions: in vivo
[19] = Plasma protein binding in rat assessed as unbound fraction; type: ADME, cell-free
[20] = Half life in rat at 10 mg/kg, po; type: ADME, organism-based; conditions: in vivo
[21] = Volume of distribution at steady state in mouse at 1 mg/kg, iv; type: ADME, organism-based; conditions: in vivo, read-out: Vdss
[22] = Oral bioavailability in mouse at 50 mg/kg; type: ADME, organism-based; conditions: in vivo
[23] = Clearance in rat assessed as liver blood flow at 1 mg/kg, iv; type: ADME, organism-based; conditions: in vivo
[24] = Clearance in dog assessed as liver blood flow at 1 mg/kg, iv; type: ADME, organism-based, Canis lupus familiaris; conditions: in vivo
[25] = Clearance in mouse assessed as liver blood flow at 1 mg/kg, iv; type: ADME, organism-based; conditions: in vivo
[26] = Plasma protein binding in mouse assessed as unbound fraction; type: ADME, cell-free
[27] = Half life in mouse at 50 mg/kg, po; type: ADME, organism-based; conditions: in vivo
[28] = Cmax in mouse at 50 mg/kg, po; type: ADME, organism-based; conditions: in vivo
[29] = Toxicity in C57BL/6J mouse assessed as effect on body weight at 30 mg/kg, po BID measured after 19 days; type: organism-based; conditions: in vivo, 456 h, time 19 day
[30] = Plasma protein binding in human assessed as unbound fraction; type: ADME, cell-free
[31] = Cmax in dog at 2 mg/kg, po; type: ADME, organism-based, Canis lupus familiaris; conditions: in vivo
[32] = Apparent permeability of compound in human Caco-2 cells across basolateral to apical side
[33] = Apparent permeability of compound in human Caco-2 cells across apical to basolateral side
[34] = Kinetic solubility of the compound at pH 7.4; conditions: buffer
[35] = Cmax in mouse at 1 mg/kg, iv; type: ADME, organism-based; conditions: in vivo
[36] = Half life in mouse at 1 mg/kg, iv; type: ADME, organism-based; conditions: in vivo
[37] = AUC (0 to t) in mouse at 1 mg/kg, iv; type: ADME, organism-based; conditions: in vivo
[38] = Solubility of compound in FaSSIF at pH 7.4
[39] = Solubility of compound in FeSSIF at pH 7.4
[40] = Efflux ratio of apparent permeability in human Caco-2 cells across basolateral to apical side over apical to basolateral side

O=C1CN(c2c(O)cc3c(c2F)CCN(CCCC2CC2)CC3)S(=O)(=O)N1
AUC(0-t) [1]: 3480 ng·h/mL
half-life [2]: 4.55 h
Cmax [3]: 621 ng/mL
IC50 ([4]; Mus musculus, B16-F10): 247 nM
IC50 [5]: 4.5 nM

CCN1CCc2cc(O)c(N3CC(=O)NS3(=O)=O)c(F)c2CC1
AUC(0-t) [1]: 20900 ng·h/mL
AUC(0-t) [6]: 1940 ng·h/mL
bioavailability [7]: 19%
Kd [8]: 8.7 nM
AUC(0-t) [9]: 1430 ng·h/mL
bioavailability [10]: 19%
inhibition in vivo at 30 mg/kg [11]: 89%
Vd [12]: 0.35 L/kg
bioavailability [13]: 140%
AUC(0-t) [14]: 69200 ng·h/mL
Vd [15]: 0.26 L/kg
IC50 [16]: 3.09 nM
Cmax [17]: 368 ng/mL
half-life [2]: 2.37 h
half-life [18]: 1.31 h
fraction unbound [19]: 0.815
half-life [20]: 2.37 h
Vd [21]: 0.4 L/kg
bioavailability [22]: 93%
LBF [23]: 15%
LBF [24]: 14.1%
LBF [25]: 12.7%
fraction unbound [26]: 0.884
half-life [27]: 2.1 h
Cmax [28]: 17800 ng/mL
Activity [29]: Non-Toxic
Cmax [3]: 4750 ng/mL
IC50 ([4]; Mus musculus, B16-F10): 212 nM
fraction unbound [30]: 0.804
IC50 [5]: 9.3 nM
Cmax [31]: 402 ng/mL

O=C1CN(c2c(O)cc3c(c2F)CCN(CC2CC2)CC3)S(=O)(=O)N1
AUC(0-t) [1]: 5140 ng·h/mL
half-life [2]: 4.34 h
Papp B→A [32]: 0.18 ×10⁻⁶ cm/s
fraction unbound [26]: 0.801
Papp A→B [33]: 0.28 ×10⁻⁶ cm/s
Cmax [3]: 899 ng/mL
solubility kinetic [34]: 202 µM (≈ 74.6 µg/mL)
IC50 ([4]; Mus musculus, B16-F10): 399 nM
fraction unbound [30]: 0.638
IC50 [5]: 6.04 nM

O=C1CN(c2c(O)cc3c(c2F)CCN(CC(F)F)CC3)S(=O)(=O)N1
IC50 ([4]; Mus musculus, B16-F10): 5330 nM
IC50 [5]: 100 nM

O=C1CN(c2c(O)cc3c(c2F)CCNCC3)S(=O)(=O)N1
IC50 ([4]; Mus musculus, B16-F10): 350 nM
IC50 [5]: 19.7 nM

CN1CCc2cc(O)c(N3CC(=O)NS3(=O)=O)c(F)c2CC1
AUC(0-t) [1]: 7980 ng·h/mL
Cmax [35]: 3200 ng/mL
half-life [2]: 2.22 h
fraction unbound [19]: 0.874
half-life [36]: 0.9 h
AUC(0-t) [37]: 1490 ng·h/mL
fraction unbound [26]: 0.852
Papp A→B [33]: < 0.48 ×10⁻⁶ cm/s
Cmax [3]: 2290 ng/mL
IC50 ([4]; Mus musculus, B16-F10): 461 nM
fraction unbound [30]: 0.998
IC50 [5]: 4.5 nM

CC(C)N1CCc2cc(O)c(N3CC(=O)NS3(=O)=O)c(F)c2CC1
IC50 ([4]; Mus musculus, B16-F10): 378 nM
IC50 [5]: 9.2 nM

O=C1CN(c2c(O)cc3c(c2F)CCN(CCC2CC2)CC3)S(=O)(=O)N1
AUC(0-t) [1]: 1320 ng·h/mL
half-life [2]: 4.64 h
Cmax [3]: 328 ng/mL
IC50 ([4]; Mus musculus, B16-F10): 117 nM
IC50 [5]: 4.3 nM

CCC1Cc2c(cc(O)c(N3CC(=O)NS3(=O)=O)c2F)CCN1 (racemic)
IC50 ([4]; Mus musculus, B16-F10): 425 nM
IC50 [5]: 9.73 nM

CC1Cc2c(cc(O)c(N3CC(=O)NS3(=O)=O)c2F)CCN1 (racemic)
AUC(0-t) [1]: 1360 ng·h/mL
half-life [2]: 1.25 h
Cmax [3]: 392 ng/mL

CC1Cc2c(cc(O)c(N3CC(=O)NS3(=O)=O)c2F)CCN1CC1CC1 (racemic)
IC50 ([4]; Mus musculus, B16-F10): 1030 nM
IC50 [5]: 28.1 nM

CCC1Cc2c(cc(O)c(N3CC(=O)NS3(=O)=O)c2F)CCN1C (racemic)
IC50 ([4]; Mus musculus, B16-F10): 17700 nM
IC50 [5]: 75.5 nM

CC1Cc2c(cc(O)c(N3CC(=O)NS3(=O)=O)c2F)CCN1C (racemic)
IC50 ([4]; Mus musculus, B16-F10): 669 nM
IC50 [5]: 17.4 nM

CC1Cc2c(cc(O)c(N3CC(=O)NS3(=O)=O)c2F)CCN1 (stereo in doubt; 10a)
IC50 ([4]; Mus musculus, B16-F10): 276 nM
IC50 [5]: 5 nM

CC1Cc2c(cc(O)c(N3CC(=O)NS3(=O)=O)c2F)CCN1 (stereo in doubt; 10b)
IC50 ([4]; b16-f10): 455 nM
IC50 [5]: 17.4 nM

CC(C)CCN[C@@H]1CCc2cc(O)c(N3CC(=O)NS3(=O)=O)c(F)c2C1 [OSUNPROTAFIB]
AUC(0-t) [1]: 903 ng·h/mL
AUC(0-t) [6]: 173 ng·h/mL
bioavailability [7]: 6%
AUC(0-t) [9]: 319 ng·h/mL
solubility [38]: 206 µM (≈ 79.4 µg/mL)
bioavailability [10]: 1.4%
solubility [39]: 223 µM (≈ 86 µg/mL)
Vd [12]: 0.31 L/kg
bioavailability [13]: 11%
AUC(0-t) [14]: 3820 ng·h/mL
Cmax [35]: 1860 ng/mL
Vd [15]: 0.33 L/kg
IC50 [16]: 0.69 nM
Cmax [17]: 38 ng/mL
half-life [2]: 4.21 h
half-life [18]: 3.41 h
fraction unbound [19]: 0.896
Vd [21]: 0.68 L/kg
efflux ratio [40]: 0.065
bioavailability [22]: 9%
LBF [23]: 24.9%
LBF [24]: 20.9%
Papp B→A [32]: 0.093 ×10⁻⁶ cm/s
half-life [36]: 1.13 h
AUC(0-t) [37]: 851 ng·h/mL
LBF [25]: 22.1%
fraction unbound [26]: 0.978
Papp A→B [33]: 1.43 ×10⁻⁶ cm/s
half-life [27]: 4.86 h
Cmax [28]: 278 ng/mL
Cmax [3]: 78 ng/mL
solubility kinetic [34]: 204 µM (≈ 78.6 µg/mL)
IC50 ([4]; Mus musculus, B16-F10): 44 nM
fraction unbound [30]: 0.585
IC50 [5]: 2.2 nM
Cmax [31]: 67 ng/mL
